The values that follow come from patent US11401278B2, “Macrocyclic indole derivatives” (The Broad Institute, Inc., priority 2017, dated 2022).

For one test, the target named is BCL-XL (Homo sapiens (Human), UniProt Q07817). The test can be described thus: Protein-protein interaction assay BCL-XL/Bad BH3 peptide (BCL-XL assay, TR-FRET). As to conditions: His-BCL-XL / Bad BH3 peptide, median. Format: binding. The protocol:
Assay 2 Protein-Protein Interaction Assay: BCL-XL/Bad BH3 Peptide (BCL-XL Assay)
The dose-dependent inhibition by the compounds described in this invention of the interaction between BCL-XL and the BH3 domain of Bad (both human) was determined using a steady state binding competition assay with time-resolved fluorescence energy transfer (TR-FRET) readout. For that purpose BCL-XL (amino acids 1-212, C-terminal fused to a hexahistidine (6×His) tag (SEQ ID 3) and a synthetic Bad BH3-derived peptide of sequence Biotin-PEG2-PEG2-NLWAAQRYGRELRR-Nle-SDEFVDSFKK-amide (SEQ ID 4) served as protein receptor and tracer ligand respectively. The recombinant BCL-XL protein (expressed in E. coli) was purchased from BPS Bioscience (San Diego, Calif., USA). The Bad BH3-derived peptide can be obtained from e.g. Biosyntan (Berlin, Germany).
In the assay 11 different concentrations of each compound (0.1 nM, 0.33 nM, 1.1 nM, 3.8 nM, 13 nM, 44 nM, 0.15 μM, 0.51 μM, 1.7 μM, 5.9 μM and 20 μM) were typically measured as duplicates in the same microtiter plate. For that, 100-fold concentrated DMSO solutions were prepared by serial dilutions (1:3.4) of a 2 mM stock solution in a clear, 384-well microtiter plate (Greiner Bio-One, Frickenhausen, Germany). From there, 50 nl were transferred in a dark test plate (Greiner Bio-One, Frickenhausen, Germany). The assay was initiated by addition of 2 μl of a 2.5-fold concentrated His-BCL-XL solution (usually for a 1 nM end concentration in 5 μl reaction volume) in aqueous assay buffer [50 mM Tris/HCl pH 7, 100 mM sodium chloride (NaCl), 50 mM potassium fluoride (KF), 0.005% Tween-20, 2 mM DTT, 0.1% bovine gamma globulin (BGG)] to the compounds in the assay plate. This was followed by a 10-minute incubation step at 22° C. for pre-equilibration of the putative complex between His-BCL-XL and the compounds. After that, 3 μl of a 1.67-fold concentrated solution (in assay buffer) consisting of Bad BH3-derived peptide (1 nM end concentration) and TR-FRET detection reagents [1.67 nM anti-His-Eu cryptate and 1.67 nM streptavidin-XL665 (both from Cisbio Bioassays, Codolet, France)], were added.
The mixture was incubated in the dark for one hour at 22° C. and then overnight at 4° C. The formation of BCL-XL/Bad complexes was determined by measuring the resonance energy transfer of the anti-His- Eu-cryptate antibody to the streptavidin-XL665 present in the reaction. For that purpose, the fluorescence emission at 620 nm and 665 nm after excitation at 330-350 nm was measured in a TR-FRET measuring instrument, for instance a Rubystar or a Pherastar (both from BMG Lab Technologies, Offenburg, Germany) or a Viewlux (Perkin-Elmer). The ratio of the emission at 665 nm and at 622 nm was used as indicator of the amount of BCL-XL/Bad complexes present.
The resulting data (ratio) were normalized, taking 0% inhibition as the mean value of control measurements (usually 32 data points) where all reagents were included. In this case 50 nl DMSO were used instead of compounds. A 100% inhibition corresponded to the mean value of control measurements (usually 32 data points) where all reagents except BCL-XL were included. IC50 values were determined by regression analysis based on a 4 parameter equation (minimum, maximum, IC50, Hill; Y=Max+(Min−Max)/(1+(X/IC50)^HiII) using the Screener Software (Genedata).
On the technique in general: TR-FRET usually uses a lanthanide donor and a delayed reading to cut background.

The subject of the next test is MV-4-11. The test can be described thus: Antiproliferation assay (Assay 7), MV-4-11. Format: cell-based. As to conditions: CellTiter-Glo, several values per example. The protocol:
Assessment of the Anti-Proliferative Effect of Compounds in Different Cell Lines
The impact of compounds on the proliferation of different cell lines was assessed using the CellTiter-Glo® Luminescent Cell Viability reagent from Promega (G7573).
In parallel, cells were plated in a reference (day 0) plate for time zero determination.
Rim wells were excluded. The cells were incubated for 72 hours in a humidified incubator at 37° C. The day 0 plate was measured by adding 30 μL/well of CTG solution (CellTiter-Glo® Luminescent Cell Viability reagent, Promega G7573) to time zero wells in the reference plate followed by a 10 minutes incubation and luminescence reading at 0.1 ms. using the PHERAstar FS microplate reader (BMG Labtech).
After 72 hours incubation, the treated plates were measured in the same way as the day 0 plate mentioned above.
On the technique in general: In ATP-based viability assays light output follows the ATP content of the culture.

The subject of another test is SUDHL5. The test can be described thus: Induction of caspase-3/7 activity (Assay 4), SUDHL5. Type of test: cell-based. To be noted: caspase-3/7 induction, median. The method in brief: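 DLBCL cells were exposed to compounds for 3 hours at 37 °C, then caspase-3/7 activation was read with Caspase-Glo 3/7 reagent. After subtracting medium-only background, EC50s were derived with fixed C0=1 and the reference compound's maximal induction as plateau.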

[1] abbreviates: Homo sapiens, MV4-11, 72 h, read-out: Antiproli MV-4-11 [M] IC50.

Where a name gives a salt, the structure may show the parent alone. Read-outs that look alike come from different tables or passages of the source. A value given as a limit tells only on which side of the number the result lay.

By IC50 is commonly meant the concentration that gives 50% inhibition. For orientation: EC50 means the concentration giving half of the maximal effect. Higher therefore signals weaker potency.

Chain of BCL-XL (Q07817 other isoform, or with tags, fused parts or gaps): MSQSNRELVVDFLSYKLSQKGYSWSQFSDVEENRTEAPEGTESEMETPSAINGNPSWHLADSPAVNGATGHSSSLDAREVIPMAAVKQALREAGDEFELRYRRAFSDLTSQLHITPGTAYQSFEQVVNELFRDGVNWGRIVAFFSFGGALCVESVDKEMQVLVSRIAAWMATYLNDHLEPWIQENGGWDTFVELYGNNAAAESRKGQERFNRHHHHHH

Turning to `Cc1c2c(nn1C)CN(C)S(=O)(=O)CCCn1c(C(=O)O)c(CCCOc3cccc4ccccc34)c3ccc(F)c-2c31` (racemic) [Example 26, (rac)-13-Fluoro-8,11,12-trimethyl-1-(3-(naphthalen-1-yloxy)propyl)-5,6,9,11-tetrahydro-4H,8H-pyrazolo[3′,4′:4,5][1]thia[2,8]diazacycloundecino[6,7,8-hi]indole-2-carboxylic acid 7,7-dioxide], the IC50 is more than 20 µM against BCL-XL and 5.17e-07 M in the test with MV-4-11 (setting [1]). Further, in the test with SUDHL5 (Homo sapiens, SU-DHL-5, 3 h), the EC50 is 1.3 µM.
In turn, `CCc1c2c(nn1C)CN(CCN1CCOCC1)S(=O)(=O)CCCn1c(C(=O)O)c(CCCOc3cccc4cc(F)ccc34)c3ccc(Cl)c-2c31` [Example 77, (rac)-13-chloro-12-ethyl-1-(3-((6-fluoronaphthalen-1-yl)oxy)propyl)-11-methyl-8-(2-morpholinoethyl)-5,6,9,11-tetrahydro-4H,8H-pyrazolo[3′,4′:4,5][1]thia[2,8]diazacycloundecino[6,7,8-hi]indole-2-carboxylic acid 7,7-dioxide] returned an IC50 against BCL-XL of more than 20 µM. The compound also gave an EC50 in the test on SUDHL5 (Homo sapiens, SU-DHL-5, 3 h) of 4.8 µM.
`Cc1c2c(nn1C)CN(C)S(=O)(=O)CCCn1c(C(=O)O)c(CCCOc3cccc4c3CCC4)c3ccc(F)c-2c31` (racemic) [Example 27, (rac)-1-(3-((2,3-Dihydro-1H-inden-4-yl)oxy)propyl)-13-fluoro-8,11,12-trimethyl-5,6,9,11-tetrahydro-4H,8H-pyrazolo[3′,4′:4,5][1]thia[2,8]diazacycloundecino[6,7,8-hi]indole-2-carboxylic acid 7,7-dioxide]: the IC50 on BCL-XL is more than 20 µM; in the test with MV-4-11 (setting [1]) it was 8.61e-07 M. In the test on SUDHL5 (Homo sapiens, SU-DHL-5, 3 h), this compound gave an EC50 of 0.7 µM.
As for `CCc1c2c(nn1C)CN(C)S(=O)(=O)CCCn1c(C(=O)O)c(CCCOc3cccc4c3CCC4)c3ccc(F)c-2c31` (racemic) [Example 32, (rac)-1-(3-((2,3-Dihydro-1H-inden-4-yl)oxy)propyl)-12-ethyl-13-fluoro-8,11-dimethyl-5,6,9,11-tetrahydro-4H,8H-pyrazolo[3′,4′:4,5][1]thia[2,8]diazacycloundecino[6,7,8-hi]indole-2-carboxylic acid 7,7-dioxide], the IC50 on BCL-XL was more than 20 µM; in the test on MV-4-11 (72 hours, read-out: Antiproli MV-4-11 [M] IC50), 1.14e-06 M; with MV-4-11 (setting [1]), 2.2e-06 M. The EC50 in the test with SUDHL5 (Homo sapiens, SU-DHL-5, 3 h) is 0.58 µM.
Regarding `CCc1c2c(nn1C)CNS(=O)(=O)CCCn1c(C(=O)O)c(CCCOc3cccc4ccccc34)c3cccc-2c31` (racemic) [Example 17, (rac)-12-Ethyl-11-methyl-1-(3-(naphthalen-1-yloxy)propyl)-4,5,6,8,9,11-hexahydropyrazolo[3′,4′:4,5][1,2,8]thiadiazacycloundecino[6,7,8-hi]indole-2-carboxylic acid 7,7-dioxide], the IC50 is more than 20 µM against BCL-XL and 1.65e-05 M in the test on MV-4-11 (setting [1]). In addition, in the test with SUDHL5 (Homo sapiens, SU-DHL-5, 3 h), it took 13 µM to reach a half-maximal effect (EC50).
Take `Cc1c2c(nn1C)CN(C)S(=O)(=O)CCCn1c(C(=O)O)c(CCCOc3cccc4c3CCCC4)c3ccc(F)c-2c31` (racemic) [Example 29, (rac)-13-Fluoro-8,11,12-trimethyl-1-(3-((5,6,7,8-tetrahydronaphthalen-1-yl)oxy)propyl)-5,6,9,11-tetrahydro-4H,8H-pyrazolo[3′,4′:4,5][1]thia[2,8]diazacycloundecino[6,7,8-hi]indole-2-carboxylic acid 7,7-dioxide]: the IC50 on BCL-XL was more than 20 µM; in the test on MV-4-11 (setting [1]), 5.86e-06 M. Besides, in the test with SUDHL5 (Homo sapiens, SU-DHL-5, 3 h), the EC50 was 1.5 µM.
Take `CCc1c2c(nn1C)CN(CCCN1CCCC1=O)S(=O)(=O)CCCn1c(C(=O)O)c(CCCOc3cccc4ccccc34)c3cccc-2c31` (racemic) [Example 13, (rac)-12-Ethyl-11-methyl-1-(3-(naphthalen-1-yloxy)propyl)-8-(3-(2-oxopyrrolidin-1-yl)propyl)-5,6,9,11-tetrahydro-4H,8H-pyrazolo[3′,4′:4,5][1]thia[2,8]diazacycloundecino[6,7,8-hi]indole-2-carboxylic acid 7,7-dioxide]: the IC50 is more than 20 µM on BCL-XL and 1.62e-05 M in the test with MV-4-11 (setting [1]). The EC50 with SUDHL5 (Homo sapiens, SU-DHL-5, 3 h) is 10 µM.
As for `Cc1c2c(nn1C)CN(C)S(=O)(=O)CCCn1c(C(=O)O)c(CCCOc3cccc4ccccc34)c3ccc(Cl)c-2c31` (single isomer, unassigned; enantiomer 2) [Example 6, 4-Chloro-2,3,14-trimethyl-7-{3-[(naphthalen-1-yl)oxy]propyl}-13,13-dioxo-10,11,12,13,14,15-hexahydro-2H-13λ^6-pyrazolo[3′,4′:4,5][1,2,8]thiadiazacycloundecino[6,7,8-hi]indole-8-carboxylic acid-N-ethylethanamine salt (Enantiomer 2)], the IC50 stood at 18 µM at BCL-XL and 2.02e-05 M in the test on MV-4-11 (72 hours, listed as 06, read-out: Antiproli MV-4-11 [M] IC50). Also, in the test on SUDHL5 (3 hours), the EC50 worked out at 16 µM.
On BCL-XL, `Cc1c2c(nn1C)CNS(=O)(=O)CCCn1c(C(=O)O)c(CCCOc3cccc4cc(F)ccc34)c3ccc(Cl)c-2c31` (single isomer, unassigned; enantiomer 1) [Example 51, 4-chloro-7-{3-[(6-fluoronaphthalen-1-yl)oxy]propyl}-2,3-dimethyl-13,13-dioxo-10,11,12,13,14,15-hexahydro-2H-13lambda^6-pyrazolo[3′,4′:4,5][1,2,8]thiadiazacycloundecino[6,7,8-hi]indole-8-carboxylic acid (Enantiomer 1)] showed an IC50 of more than 20 µM. Further, the EC50 with SUDHL5 (3 hours) worked out at 0.34 µM.
For the compound `CCc1c2c(nn1C)C(CCC1CCOCC1)N(C)S(=O)(=O)CCCn1c(C(=O)O)c(CCCOc3cccc4cc(F)ccc34)c3ccc(Cl)c-2c31` (single isomer, unassigned; enantiomer 1) [Example 61, (+)-4-chloro-3-ethyl-7-{3-[(6-fluoronaphthalen-1-yl)oxy]propyl}-2,14-dimethyl-15-[2-(oxan-4-yl)ethyl]-13,13-dioxo-10,11,12,13,14,15-hexahydro-2H-13lambda^6-pyrazolo[3′,4′:4,5][1,2,8]thiadiazacycloundecino[6,7,8-hi]indole-8-carboxylic acid (Enantiomer 1)], the IC50 at BCL-XL is more than 20 µM. Moreover, the EC50 in the test with SUDHL5 (3 hours) is 0.022 µM.
As for `CCc1c2c(nn1C)C(CCC1CCOCC1)N(C)S(=O)(=O)CCCn1c(C(=O)O)c(CCCOc3cccc4cc(F)ccc34)c3ccc(Cl)c-2c31` (single isomer, unassigned; enantiomer 3) [Example 63, (+)-4-chloro-3-ethyl-7-{3-[(6-fluoronaphthalen-1-yl)oxy]propyl}-2,14-dimethyl-15-[2-(oxan-4-yl)ethyl]-13,13-dioxo-10,11,12,13,14,15-hexahydro-2H-13lambda^6-pyrazolo[3′,4′:4,5][1,2,8]thiadiazacycloundecino[6,7,8-hi]indole-8-carboxylic acid (Enantiomer 3)], at BCL-XL, the IC50 was 19 µM. Further, the half-maximal effective concentration (EC50) in the test with SUDHL5 (3 hours) turned out to be 0.04 µM.
